Measurements taken from patent US9328112B2, “Tetracyclic CDK9 kinase inhibitors” (AbbVie Inc., priority 2014, dated 2016).
Where a name gives a salt, the structure may show the parent alone.

Assays:
[1] = target: CDK9/Cyclin T1 (Homo sapiens (Human), UniProt P50750); assay: CDK9 enzyme assay (LANCE ULight TR-FRET kinase assay); format: biochemical; conditions: 1000 μM ATP, 100 nM ULight MBP, kinase reaction 1 hour
Procedure: CDK9 enzyme activities were measured using LANCE ULight TR-FRET kinase assay reagents (PerkinElmer, Waltham, Mass.). Compounds were diluted in 100% DMSO then diluted with 1:10 in serine/threonine kinase assay buffer containing 20 mM HEPES, 10 mM MgCl2, […], and 0.0075% Triton X-100. Equal volume of the compound dilutions was added to a final reaction mixture containing LANCE detection buffer (PerkinElmer CR97-100), 100 nM ULight MBP (PerkinElmer TRF0109M), 1000 μM ATP, and CDK9/Cyclin T1 (Carna Biosciences 04-110). The kinase reaction was carried out for 1 hour before addition of stopping buffer to a final of 20 mM EDTA and 0.5 nM of LANCE Ultra Europium anti-phospho-MBP antibody (PerkinElmer TRF0201M) in LANCE detection buffer. The reaction was incubated for 1 hour and the signal was read in Envision in TR-FRET mode (excitation at 320 nm and emission at 615/665 nm).

[2] = tested on: H929 cells; assay: Cell viability assay (Cell TiterGlo); format: cell-based; conditions: Homo sapiens, NCI-H929, 24 hours at 37° C., Cell TiterGlo luminescence
Procedure: The cell viability assay was performed using H929 cells. Cells were seeded in 96-well plates at 10,000 cells/well and, after overnight incubation, treated with compounds in a dose response of 3-fold dilutions from 10 μM to 0.005 μM ([…], 0.1% final DMSO concentration). After 24 hours at 37° C., cell viability was measured using Cell TiterGlo reagent (Promega) with a luminescence reader.

Sequence of CDK9/Cyclin T1 (P50750 whole entry): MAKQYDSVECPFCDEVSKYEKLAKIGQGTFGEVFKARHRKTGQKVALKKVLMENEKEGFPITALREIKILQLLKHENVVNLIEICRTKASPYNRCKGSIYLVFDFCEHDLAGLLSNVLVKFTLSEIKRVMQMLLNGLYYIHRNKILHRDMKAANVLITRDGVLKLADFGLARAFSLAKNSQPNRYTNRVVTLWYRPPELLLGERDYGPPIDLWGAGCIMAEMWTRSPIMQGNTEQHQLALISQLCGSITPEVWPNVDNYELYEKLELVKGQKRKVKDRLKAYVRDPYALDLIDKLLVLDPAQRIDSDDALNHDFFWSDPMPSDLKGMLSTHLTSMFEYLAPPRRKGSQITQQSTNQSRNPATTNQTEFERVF
Sequence of CDK9/Cyclin T1 (O60563 whole entry partner): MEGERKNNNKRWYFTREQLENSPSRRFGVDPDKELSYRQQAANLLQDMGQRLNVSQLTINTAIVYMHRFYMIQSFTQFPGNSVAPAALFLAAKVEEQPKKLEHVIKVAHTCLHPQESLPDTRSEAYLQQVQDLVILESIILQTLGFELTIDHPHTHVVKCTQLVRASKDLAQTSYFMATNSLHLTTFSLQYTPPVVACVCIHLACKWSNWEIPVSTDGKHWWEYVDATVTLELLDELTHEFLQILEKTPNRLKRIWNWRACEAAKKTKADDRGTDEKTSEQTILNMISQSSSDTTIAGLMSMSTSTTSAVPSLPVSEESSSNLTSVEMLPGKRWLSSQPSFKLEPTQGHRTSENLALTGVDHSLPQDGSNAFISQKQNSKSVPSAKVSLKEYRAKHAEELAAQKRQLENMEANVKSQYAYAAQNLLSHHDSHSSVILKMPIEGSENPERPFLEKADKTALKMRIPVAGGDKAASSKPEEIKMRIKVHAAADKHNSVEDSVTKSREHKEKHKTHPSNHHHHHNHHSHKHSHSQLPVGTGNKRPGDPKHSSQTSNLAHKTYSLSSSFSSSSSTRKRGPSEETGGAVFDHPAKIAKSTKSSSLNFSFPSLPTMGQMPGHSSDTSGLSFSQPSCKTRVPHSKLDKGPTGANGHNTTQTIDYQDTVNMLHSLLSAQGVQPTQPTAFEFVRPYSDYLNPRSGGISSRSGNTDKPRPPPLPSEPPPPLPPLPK

Compound | IC50 [1] [nM] | IC50 [2] [nM]
CN1Cc2c(C3=CCNCC3)[nH]c3nccc(c23)-c2cc(F)ccc21 [Example 1, 10-fluoro-7-methyl-5-(1,2,3,6-tetrahydropyridin-4-yl)-6,7-dihydro-4H-3,4,7-triazadibenzo[cd,f]azulene] | 21 | 40
CCC1c2c(C3=CCNCC3)[nH]c3nccc(c23)-c2cc(F)ccc2N1C (stereo not shown) [Example 9, 6-ethyl-10-fluoro-7-methyl-5-(1,2,3,6-tetrahydropyridin-4-yl)-6,7-dihydro-4H-3,4,7-triazadibenzo[cd,f]azulene dihydrochloride] | 48 | 10
CN1c2ccc(F)cc2-c2ccnc3[nH]c(C4=CCNCC4)c(c23)C1c1cnn(C)c1 (stereo not shown) [Example 10, 10-fluoro-7-methyl-6-(1-methyl-1H-pyrazol-4-yl)-5-(1,2,3,6-tetrahydropyridin-4-yl)-6,7-dihydro-4H-3,4,7-triazadibenzo[cd,f]azulene] | 230 | 360
CN(C)C(=O)CN1CC=C(c2[nH]c3nccc4c3c2CN(C)c2ccc(F)cc2-4)CC1 [Example 12, 2-[4-(10-fluoro-7-methyl-6,7-dihydro-4H-3,4,7-triazadibenzo[cd,f]azulen-5-yl)-3,6-dihydropyridin-1(2H)-yl]-N,N-dimethylacetamide] | 51 | 42
Fc1ccc2c(c1)-c1ccnc3[nH]c(C4=CCNCC4)c(c13)CO2 [Example 14, 10-fluoro-5-(1,2,3,6-tetrahydropyridin-4-yl)-4,6-dihydro-7-oxa-3,4-diazadibenzo[cd,f]azulene] | 20 | 180
CN1Cc2c(C3=CCN(CC(=O)O)CC3)[nH]c3nccc(c23)-c2cc(F)ccc21 [Example 16, [4-(10-fluoro-7-methyl-6,7-dihydro-4H-3,4,7-triazadibenzo[cd,f]azulen-5-yl)-3,6-dihydropyridin-1(2H)-yl]acetic acid dihydrochloride] | 61 | 220
CN(CCO)C(=O)CN1CC=C(c2[nH]c3ncc(F)c4c3c2CN(C)c2ccc(F)cc2-4)CC1 [Example 71, 2-[4-(1,10-difluoro-7-methyl-6,7-dihydro-4H-3,4,7-triazadibenzo[cd,f]azulen-5-yl)-3,6-dihydropyridin-1(2H)-yl]-N-(2-hydroxyethyl)-N-methylacetamide] |  | 21
CN1Cc2c(C3=CCN([C@H]4CC[C@H](CC(=O)O)CC4)CC3)[nH]c3nccc(c23)-c2ccccc21 [Example 169, {trans-4-[4-(7-methyl-6,7-dihydro-4H-3,4,7-triazadibenzo[cd,f]azulen-5-yl)-3,6-dihydropyridin-1(2H)-yl]cyclohexyl}acetic acid] | 90 | 
CN1Cc2c(C3=CCN([C@H]4CC[C@@H](CC(=O)O)CC4)CC3)[nH]c3nccc(c23)-c2ccccc21 [Example 170, {cis-4-[4-(7-methyl-6,7-dihydro-4H-3,4,7-triazadibenzo[cd,f]azulen-5-yl)-3,6-dihydropyridin-1(2H)-yl]cyclohexyl}acetic acid] | 110 | 
CN1Cc2c(C3=CCN([C@H]4CC[C@H](C(=O)O)CC4)CC3)[nH]c3nccc(c23)-c2ccccc21 [Example 171, trans-4-[4-(7-methyl-6,7-dihydro-4H-3,4,7-triazadibenzo[cd,f]azulen-5-yl)-3,6-dihydropyridin-1(2H)-yl]cyclohexanecarboxylic acid] | 150 | 
CN1Cc2c(C3=CCN(C4CCC(C(=O)O)CC4)CC3)[nH]c3nccc(c23)-c2ccccc21 (stereo not shown) [Example 172, 4-[4-(7-methyl-6,7-dihydro-4H-3,4,7-triazadibenzo[cd,f]azulen-5-yl)-3,6-dihydropyridin-1(2H)-yl]cyclohexanecarboxylic acid] | 120 | 

Continued, values first:

IC50 [1] [nM] | IC50 [2] [nM] | Compound
 | 940 | CN1Cc2c(C3=CCN(C(=O)OC(C)(C)C)CC3)[nH]c3nccc(c23)-c2cc(F)ccc21 [Example 2, tert-butyl 4-(10-fluoro-7-methyl-6,7-dihydro-4H-3,4,7-triazadibenzo[cd,f]azulen-5-yl)-3,6-dihydropyridine-1(2H)-carboxylate]
47 | 590 | CCOC(=O)NS(=O)(=O)N1CC=C(c2[nH]c3nccc4c3c2CN(C)c2ccc(F)cc2-4)CC1 [Example 3, ethyl{[4-(10-fluoro-7-methyl-6,7-dihydro-4H-3,4,7-triazadibenzo[cd,f]azulen-5-yl)-3,6-dihydropyridin-1(2H)-yl]sulfonyl}carbamate]
25 | 150 | CN1Cc2c(C3=CCN(S(C)(=O)=O)CC3)[nH]c3nccc(c23)-c2cc(F)ccc21 [Example 4, 10-fluoro-7-methyl-5-[1-(methylsulfonyl)-1,2,3,6-tetrahydropyridin-4-yl]-6,7-dihydro-4H-3,4,7-triazadibenzo[cd,f]azulene]
62 | 730 | CS(=O)(=O)N1CC=C(c2[nH]c3nccc4c3c2CNc2ccc(F)cc2-4)CC1 [Example 5, 10-fluoro-5-[1-(methylsulfonyl)-1,2,3,6-tetrahydropyridin-4-yl]-6,7-dihydro-4H-3,4,7-triazadibenzo[cd,f]azulene]
340 | 2100 | CCCN1Cc2c(C3=CCN(S(C)(=O)=O)CC3)[nH]c3nccc(c23)-c2cc(F)ccc21 [Example 6, 10-fluoro-5-[1-(methylsulfonyl)-1,2,3,6-tetrahydropyridin-4-yl]-7-propyl-6,7-dihydro-4H-3,4,7-triazadibenzo[cd,f]azulene]
800 | 3300 | CS(=O)(=O)N1CC=C(c2[nH]c3nccc4c3c2CN(CC2CCOCC2)c2ccc(F)cc2-4)CC1 [Example 7, 10-fluoro-5-[1-(methylsulfonyl)-1,2,3,6-tetrahydropyridin-4-yl]-7-(tetrahydro-2H-pyran-4-ylmethyl)-6,7-dihydro-4H-3,4,7-triazadibenzo[cd,f]azulene]
1400 |  | CCC1c2c(C3=CCN(C(=O)OC(C)(C)C)CC3)[nH]c3nccc(c23)-c2cc(F)ccc2N1C (stereo not shown) [Example 8, tert-butyl 4-(6-ethyl-10-fluoro-7-methyl-6,7-dihydro-4H-3,4,7-triazadibenzo[cd,f]azulen-5-yl)-3,6-dihydropyridine-1(2H)-carboxylate]
120 | 32 | CCC1c2c(C3=CCN(S(C)(=O)=O)CC3)[nH]c3nccc(c23)-c2cc(F)ccc2N1C (stereo not shown) [Example 11, 6-ethyl-10-fluoro-7-methyl-5-[1-(methylsulfonyl)-1,2,3,6-tetrahydropyridin-4-yl]-6,7-dihydro-4H-3,4,7-triazadibenzo[cd,f]azulene]
 | 93 | CNC(=O)N1CC=C(c2[nH]c3nccc4c3c2CN(C)c2ccc(F)cc2-4)CC1 [Example 13, 4-(10-fluoro-7-methyl-6,7-dihydro-4H-3,4,7-triazadibenzo[cd,f]azulen-5-yl)-N-methyl-3,6-dihydropyridine-1(2H)-carboxamide]
94 | 590 | CS(=O)(=O)N1CC=C(c2[nH]c3nccc4c3c2COc2ccc(F)cc2-4)CC1 [Example 15, 10-fluoro-5-[1-(methylsulfonyl)-1,2,3,6-tetrahydropyridin-4-yl]-4,6-dihydro-7-oxa-3,4-diazadibenzo[cd,f]azulene]
2800 |  | CN1Cc2c(C3CCN(CC(=O)OC(C)(C)C)CC3)[nH]c3nccc(c23)-c2cc(F)ccc21 [Example 22, tert-butyl[4-(10-fluoro-7-methyl-6,7-dihydro-4H-3,4,7-triazadibenzo[cd,f]azulen-5-yl)piperidin-1-yl]acetate]
150 |  | CN1Cc2c(C3CCN(CC(=O)O)CC3)[nH]c3nccc(c23)-c2cc(F)ccc21 [Example 23, [4-(10-fluoro-7-methyl-6,7-dihydro-4H-3,4,7-triazadibenzo[cd,f]azulen-5-yl)piperidin-1-yl]acetic acid]
 | 130 | CN1Cc2c(C3=CCN(S(C)(=O)=O)CC3)[nH]c3ncc(F)c(c23)-c2cc(F)ccc21 [Example 68, 1,10-difluoro-7-methyl-5-[1-(methylsulfonyl)-1,2,3,6-tetrahydropyridin-4-yl]-6,7-dihydro-4H-3,4,7-triazadibenzo[cd,f]azulene]
240 |  | CN1Cc2c(C3=CCCN(CC(=O)O)C3)[nH]c3nccc(c23)-c2cc(F)ccc21 [Example 112, [5-(10-fluoro-7-methyl-6,7-dihydro-4H-3,4,7-triazadibenzo[cd,f]azulen-5-yl)-3,6-dihydropyridin-1(2H)-yl]acetic acid]
58 |  | COC(=O)C[C@H]1CC[C@H](N2CC=C(c3[nH]c4nccc5c4c3CN(C)c3cc(F)c(F)cc3-5)CC2)CC1 [Example 133, methyl{trans-4-[4-(9,10-difluoro-7-methyl-6,7-dihydro-4H-3,4,7-triazadibenzo[cd,f]azulen-5-yl)-3,6-dihydropyridin-1(2H)-yl]cyclohexyl}acetate]
84 |  | CC(C(=O)O)=C1CCC(N2CC=C(c3[nH]c4nccc5c4c3CN(C)c3ccc(F)cc3-5)CC2)CC1 (stereo not shown) [Example 176, 2-{4-[4-(10-fluoro-7-methyl-6,7-dihydro-4H-3,4,7-triazadibenzo[cd,f]azulen-5-yl)-3,6-dihydropyridin-1(2H)-yl]cyclohexylidene}propanoic acid]
